Patent publication US6528489B1, “Mycotoxin derivatives as antimitotic agents” (Ergon Pharmaceuticals LLC, priority 1999, dated 2003)

Tests used:
bFGF-stimulated HUVECs = experiment: bFGF-induced proliferation of human endothelial cells (HUVEC proliferation assay); type: cell-based; conditions: 20 ng/ml bFGF, 48 hours, read-out: IC50 of Antiproliferative Effect
Excerpt: Proliferation assays familiar to those skilled in the art using human umbilical vein endothelial cells (HUVECs) were employed in order to determine the effect of various antibiotics on the growth of bFGF-stimulated HUVECs.
The materials for this experiments included endothelial cells (HUVECS) and media for their proliferation (Media 200, fetal bovine serum (FBS), gelatin, bFGF) (Paragon Bioservices, Baltimore, Md.), and Cell Titer 96 for detection of cell proliferation (Paragon Bioservices, Baltimore, Md.). Antibiotics aurovertin B, citreoviridin, oligomycin A, oligomycin B, oligomycin C, and efrapeptin D were all obtained from Sigma Chemical Company (St. Louis, Mo.).
HUVECs were routinely cultured to confluency in Media 200 containing 10% FBS. The cells were then trypsinized and plated in a 96-well plate pre-coated with 1% gelatin at 5000 cells per well per 100 μL Media 200 containing 2% FBS. The cells were allowed to adhere for 24 hours. Subsequently, the media were aspirated and fresh Media 200 containing 0.5% FBS were added to the wells. Addition of various concentrations of antibiotics in the presence and absence of 20 ng/ml bFGF followed. The assay plates were incubated at 37° C., 5% CO2 for 48 hours. At the end of the incubation period, cell proliferation was determined using cell counting (Cell Counter Model Z1, Coulter Incorporation, Miami, Fla.) or spectrophotometry. In the later case, the assay plates were incubated with Cell Titer 96 for 2 hours and the absorbance was recorded at 490 nm.

VEGF-stimulated HUVECs = experiment: VEGF-induced migration of human endothelial cells (modified Boyden chamber); type: cell-based; conditions: 5 ng/ml VEGF, six hours
Excerpt: A migration assay familiar to those skilled in the art using vascular endothelial growth factor (VEGF)-stimulated HUVECs was employed to determine the effect of aurovertin B on endothelial cell migration.
The endothelial cells were routinely cultured as previously described.
Modified Boyden chambers in a 48-well format consisting of upper and lower wells separated by an 8-microns pore polycarbonate filter coated with collagen were used to study VEGF-induced migration of HUVECs (Paragon Bioservices, Baltimore, Md.). The endothelial cells were added to the lower wells and the migrating factor (5 ng/ml VEGF) was added to the upper wells. HUVECs were allowed to migrate from the lower to the upper wells for six hours at 37° C., 5% CO2. At the end of the incubation period, the filters were removed and washed gently. The cells on the filters were then fixed, stained with hematoxylin, and counted with a light microscope. The values obtained represent the mean of ten fields.

[1] = system: murine B16F10 melanoma tumors; experiment: Growth of murine B16F10 melanoma tumors in C57 mice; type: in vivo; conditions: 2 mg/kg i.p. every day for 9 days
Experimental: The effect of aurovertin B and efrapeptin D on the growth of murine B16F10 melanoma tumors (ATCC, Rockville, Md.) was investigated. Groups of four C57 mice (The Jackson Laboratory, BarHarbor, Me.) were injected subcutaneously with 5×10^4 B16F10 cells (The Jackson Laboratory, BarHarbor, Me.). The mice were subsequently treated i.p. with 2 mg/kg aurovertin B, 0.4 mg/kg efrapeptin D, or vehicle control. The treatment was initiated three days after the tumor inoculation and continued every day for 9 days. The tumor growth was recorded at the end of the experiment.

For `CC[C@@H]1C=CC=CC[C@H](C)[C@@H](O)[C@@H](C)C(=O)[C@H](C)[C@@H](O)[C@H](C)C(=O)[C@H](C)[C@@H](O)[C@H](C)C=CC(=O)O[C@H]2[C@@H](C)[C@@H](CC1)O[C@@]1(CC[C@@H](C)[C@@H](C[C@H](C)O)O1)[C@@H]2C` [Oligomycin C, oligomycin C], the IC50 (bFGF-stimulated HUVECs) was 5 µM.
In the case of `CC[C@H]1/C=C/C=C/C[C@@H](C)[C@H](O)[C@@](C)(O)C(=O)[C@@H](C)[C@H](O)[C@@H](C)C(=O)[C@@H](C)[C@H](O)[C@@H](C)/C=C/C(=O)O[C@@H]2[C@H](C)[C@H](CC1)O[C@@]1(O[C@@H](C[C@@H](C)O)[C@@H](C)CC1=O)[C@H]2C` [Oligomycin B, oligomycin B], the IC50 (bFGF-stimulated HUVECs) is reported as 5 µM.
For `COc1cc(=O)oc(/C=C/C=C/C=C/C(C)=C/[C@@]2(C)O[C@H](C)[C@](C)(O)[C@H]2O)c1C` [Citreoviridin, citreoviridin], the IC50 (bFGF-stimulated HUVECs) was 10 µM.
`CC[C@@H]1/C=C/C=C/C[C@H](C)[C@H](O)[C@](C)(O)C(=O)[C@H](C)[C@@H](O)[C@H](C)C(=O)[C@H](C)[C@@H](O)[C@H](C)/C=C/C(=O)O[C@H]2[C@@H](C)[C@@H](CC1)O[C@@]1(CC[C@@H](C)[C@@H](C[C@H](C)O)O1)[C@@H]2C` [Oligomycin A, oligomycin A] was tested, and the IC50 (bFGF-stimulated HUVECs) was 5 µM.
`CC[C@H]1O[C@]2(C)[C@H](OC(C)=O)[C@@]1(C)O[C@@H](/C=C/C=C/C=C/c1oc(=O)cc(OC)c1C)[C@@H]2O` [Aurovertin, aurovertin B] was tested, and the “inhibition of VEGF-induced migration of HUVECs (in words)” value (VEGF-stimulated HUVECs) was “inhibited VEGF-induced migration of HUVECs”, the “mice that exhibited measurable, growing tumors at the end of the treatment” value [1] was 50% and the “Number of mice that developed measurable tumors/Number of mice injected with tumor cells” value ([1]; started three days after tumor inoculation) was 2/4. For the same molecule, the IC50 (bFGF-stimulated HUVECs) was 10 µM.
